The source of these data is patent publication US10039764B2, “Treatment and diagnosis of cancer and precancerous conditions using PDE10A inhibitors and methods to measure PDE10A expression” (University of South Alabama, priority 2013, dated 2018).

Each structure is given as a SMILES string. Where two headings read alike, the source gives them in different places.

The target in one experiment is T1, PDE3B (Homo sapiens, UniProt Q13370).
T1 construct: purchased BPS Biosciences
Nature of the experiment: IMAP fluorescence polarization PDE assay, PDE3B. The note with it: substrate cGMP; read-out: Phosphodiesterase Inhibition PDE3B cGMP IC50. In kind it is biochemical. How it is done: (§1) MY5445 was purchased from EMD Millipore. […] Recombinant PDE enzymes were purchased from BPS Biosciences. DMSO was used as the vehicle for testing effects of all compounds.
(§2) PDE enzymatic activity was measured using IMAP fluorescence polarization assay (Molecular Devices. Inc.). […] For experiments involving cell extracts, 2×10^5 cells per well were plated on a six-well tissue culture plate 72 hours prior to cell lysis.
(§3) The effect of the inhibitors on the growth of human colon tumor and normal colonocytes was measured using the Cell Titer Glo Cell Viability Assay (Promega) as described above. The inhibitory potency toward purified recombinant phosphodiesterase enzymes was measured using the IMAP Phosphodiesterase Assay as described in the Materials and Methods section.

Another experiment deals with T2, PDE3A (Homo sapiens, UniProt Q14432).
T2 construct: purchased BPS Biosciences
T2 sequence (Q14432 whole entry): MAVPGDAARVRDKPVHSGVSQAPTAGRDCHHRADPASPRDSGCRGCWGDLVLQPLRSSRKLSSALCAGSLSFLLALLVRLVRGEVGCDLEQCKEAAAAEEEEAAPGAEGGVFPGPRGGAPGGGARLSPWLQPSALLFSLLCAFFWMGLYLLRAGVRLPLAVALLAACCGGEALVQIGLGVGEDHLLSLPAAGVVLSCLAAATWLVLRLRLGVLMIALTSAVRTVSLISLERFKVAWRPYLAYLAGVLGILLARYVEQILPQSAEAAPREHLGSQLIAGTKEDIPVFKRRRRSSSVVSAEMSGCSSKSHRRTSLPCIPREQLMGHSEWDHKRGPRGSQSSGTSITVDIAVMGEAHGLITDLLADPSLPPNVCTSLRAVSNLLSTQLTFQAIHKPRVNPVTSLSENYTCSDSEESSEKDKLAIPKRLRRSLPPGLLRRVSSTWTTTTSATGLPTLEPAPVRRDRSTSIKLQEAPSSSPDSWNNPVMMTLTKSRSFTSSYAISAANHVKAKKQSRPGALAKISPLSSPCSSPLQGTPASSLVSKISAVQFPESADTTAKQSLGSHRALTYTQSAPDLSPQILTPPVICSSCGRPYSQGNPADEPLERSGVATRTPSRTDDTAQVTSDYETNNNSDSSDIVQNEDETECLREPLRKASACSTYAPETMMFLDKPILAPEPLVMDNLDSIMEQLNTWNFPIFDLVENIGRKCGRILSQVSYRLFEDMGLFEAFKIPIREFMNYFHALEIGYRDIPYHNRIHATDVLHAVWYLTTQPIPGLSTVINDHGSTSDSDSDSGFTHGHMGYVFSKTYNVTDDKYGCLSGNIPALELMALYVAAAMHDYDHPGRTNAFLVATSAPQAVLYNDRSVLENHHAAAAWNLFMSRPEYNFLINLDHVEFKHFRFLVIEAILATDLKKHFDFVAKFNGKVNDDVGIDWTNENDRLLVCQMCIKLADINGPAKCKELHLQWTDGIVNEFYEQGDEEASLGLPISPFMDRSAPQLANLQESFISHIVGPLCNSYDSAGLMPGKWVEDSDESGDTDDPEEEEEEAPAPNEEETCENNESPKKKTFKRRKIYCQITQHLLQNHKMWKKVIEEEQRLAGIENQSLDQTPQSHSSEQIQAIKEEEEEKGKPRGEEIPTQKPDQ
Nature of the experiment: IMAP fluorescence polarization PDE assay, PDE3A. The class given is biochemical. How it is done:
as §1, §2, §3
(In general: In fluorescence polarisation assays a small probe gives low polarisation when free and higher when bound to something large.)

Experiment [1] has as its system normal colonocytes (NCM460). Nature of the experiment: Growth assay (Cell Titer Glo), normal colonocytes NCM460. In kind it is cell-based, human. To be noted: for IC50: Homo sapiens, NCM460.
From the text: (§4) All cell lines comprising the NCI-60 cancer cell panel were obtained from the NCI Developmental Therapeutics Program and maintained under the same standard conditions. The human normal colonocyte (NCM460) cell line was purchased from Incell (San Antonio, Tex.) and grown according to the manufacturer's specifications. The human colon adenoma cell line, LT97, was a gift from Dr. Brigitte Marian (Medical University Vienna, Austria) and grown according to the provider's specifications. Human mammary epithelial cells (HMEC) were purchased from Lonzo and grown using culture conditions as recommended by the supplier.
(§5) Ninety-six (96)-well microtiter plates were seeded at a density of 5,000 cells per well. For drug treatment, cells were treated with compounds or vehicle control, and incubated at 37° C. for 72 hours. For siRNA assays, cells were transfected with siRNA under the same conditions described above. The effect of treatment with inhibitors or siRNA knockdown of PDE10A on growth was measured using the Cell Titer Glo Assay (Promega), which measures viable cell number based on ATP content.
as §3
For orientation: Cellular ATP, detected with luciferase, serves as a proxy for viable cell number.

Another experiment concerns the target T3, PDE11A (Homo sapiens, UniProt Q9HCR9).
T3 construct: purchased BPS Biosciences
In words: IMAP fluorescence polarization PDE assay, PDE11A. In kind it is biochemical. As for the experimental part: as §1, §2, §3

A further experiment concerns the target T4, PDE1A (Homo sapiens, UniProt P54750).
T4 construct: purchased BPS Biosciences
Nature of the experiment: IMAP fluorescence polarization PDE assay, PDE1A. The class given is biochemical. As for the experimental part: as §1, §2, §3

In another experiment the target is T5, PDE2A (Homo sapiens, UniProt O00408).
T5 construct: purchased BPS Biosciences
T5 sequence (O00408 whole entry): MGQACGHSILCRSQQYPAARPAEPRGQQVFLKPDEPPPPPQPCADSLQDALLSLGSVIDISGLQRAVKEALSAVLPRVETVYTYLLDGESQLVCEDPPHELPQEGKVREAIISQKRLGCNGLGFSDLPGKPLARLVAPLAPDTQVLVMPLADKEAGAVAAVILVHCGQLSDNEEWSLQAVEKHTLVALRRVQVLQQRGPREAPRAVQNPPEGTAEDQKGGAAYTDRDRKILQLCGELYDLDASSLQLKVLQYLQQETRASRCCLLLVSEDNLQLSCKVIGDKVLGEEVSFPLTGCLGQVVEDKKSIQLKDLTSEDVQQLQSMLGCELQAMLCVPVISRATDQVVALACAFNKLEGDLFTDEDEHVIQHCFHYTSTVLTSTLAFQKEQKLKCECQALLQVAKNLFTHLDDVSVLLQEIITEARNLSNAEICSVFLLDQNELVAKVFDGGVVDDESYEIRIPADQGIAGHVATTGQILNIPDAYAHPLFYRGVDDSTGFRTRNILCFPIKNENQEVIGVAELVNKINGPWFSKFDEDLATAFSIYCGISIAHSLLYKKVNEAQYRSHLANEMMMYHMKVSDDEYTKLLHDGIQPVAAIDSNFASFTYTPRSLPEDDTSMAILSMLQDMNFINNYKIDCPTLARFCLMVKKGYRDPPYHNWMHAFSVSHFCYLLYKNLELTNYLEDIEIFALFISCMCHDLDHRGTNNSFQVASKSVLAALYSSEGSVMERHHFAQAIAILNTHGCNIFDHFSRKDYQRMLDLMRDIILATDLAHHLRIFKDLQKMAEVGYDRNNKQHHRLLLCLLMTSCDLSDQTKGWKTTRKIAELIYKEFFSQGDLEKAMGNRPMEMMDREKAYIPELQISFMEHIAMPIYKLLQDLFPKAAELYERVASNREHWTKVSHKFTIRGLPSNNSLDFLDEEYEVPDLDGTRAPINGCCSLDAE
In words: IMAP fluorescence polarization PDE assay, PDE2A. In kind it is biochemical. As for the experimental part:
as §1, §2, §3

The subject of experiment [2] is SW480 human colon tumor cells. In words: Growth assay (Cell Titer Glo), SW480. In kind it is cell-based.
From the text: as §4, §5, §3

A further experiment deals with T6, PDE10A (Homo sapiens, UniProt Q9Y233).
T6 construct: other: substrate cGMP; recombinant enzyme; other: substrate cAMP
T6 sequence (Q9Y233 290-1055 limits assumed): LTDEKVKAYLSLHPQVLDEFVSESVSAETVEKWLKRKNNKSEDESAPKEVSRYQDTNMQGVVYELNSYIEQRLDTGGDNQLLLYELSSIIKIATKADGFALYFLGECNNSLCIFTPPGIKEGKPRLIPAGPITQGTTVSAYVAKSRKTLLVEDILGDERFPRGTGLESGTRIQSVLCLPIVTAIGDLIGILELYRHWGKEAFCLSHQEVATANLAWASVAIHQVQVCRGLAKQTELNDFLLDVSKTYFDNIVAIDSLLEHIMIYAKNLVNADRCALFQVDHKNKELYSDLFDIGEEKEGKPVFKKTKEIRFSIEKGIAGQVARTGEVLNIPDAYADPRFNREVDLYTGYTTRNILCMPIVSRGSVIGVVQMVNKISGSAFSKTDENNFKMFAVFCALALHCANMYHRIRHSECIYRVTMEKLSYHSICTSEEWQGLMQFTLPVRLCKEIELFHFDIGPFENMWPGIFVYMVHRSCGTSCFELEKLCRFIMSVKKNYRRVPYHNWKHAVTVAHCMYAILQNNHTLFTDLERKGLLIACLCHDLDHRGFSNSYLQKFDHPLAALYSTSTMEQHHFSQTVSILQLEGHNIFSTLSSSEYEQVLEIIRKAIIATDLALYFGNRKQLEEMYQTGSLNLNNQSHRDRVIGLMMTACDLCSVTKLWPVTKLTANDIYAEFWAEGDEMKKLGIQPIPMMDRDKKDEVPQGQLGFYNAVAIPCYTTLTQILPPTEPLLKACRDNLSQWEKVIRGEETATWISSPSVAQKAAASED
Nature of the experiment: IMAP fluorescence polarization PDE assay, PDE10A. The note with it: recombinant enzyme. The class given is biochemical. As for the experimental part: as §1, §2, §3

For a further experiment, the target named is T7, PDE4B (Homo sapiens, UniProt Q07343).
T7 construct: purchased BPS Biosciences
Nature of the experiment: IMAP fluorescence polarization PDE assay, PDE4B. In kind it is biochemical. To be noted: substrate cAMP; read-out: Phosphodiesterase Inhibition PDE4B cAMP IC50. How it is done:
as §1, §2, §3

Another experiment has as its target T8, PDE9A (Homo sapiens, UniProt O76083).
T8 construct: purchased BPS Biosciences
In words: IMAP fluorescence polarization PDE assay, PDE9A. The note with it: substrate cGMP; read-out: Phosphodiesterase Inhibition PDE9A cGMP IC50. In kind it is biochemical. How it is done:
as §1, §2, §3

In a further experiment the target is T9, PDE5A (Homo sapiens, UniProt O76074).
T9 construct: purchased BPS Biosciences
In words: IMAP fluorescence polarization PDE assay, PDE5A. In kind it is biochemical. The note with it: substrate cGMP; read-out: Phosphodiesterase Inhibition PDE5A (PDE5) cGMP IC50. As for the experimental part:
as §1, §2, §3

Experiment [3] deals with HT29 human colon tumor cells. In words: Growth assay (Cell Titer Glo), HT29. The class given is cell-based. The note with it: Homo sapiens, HT-29.
From the text: as §4, §5
(§6) Effect of various PDE isozyme inhibitors on the growth of human colon tumor cells HCT116 and HT29 was determined using the Cell Titer Glo Cell Viability Assay (Promega) following 72 hours of treatment.
as §3

Experiment [4] concerns HCT116 human colon tumor cells. Nature of the experiment: Growth assay (Cell Titer Glo), HCT116. In kind it is cell-based. To be noted: Homo sapiens, HCT-116.
From the text: as §4, §5, §6, §3

One may read the IC50 as the concentration needed to halve the response being measured.

T4 sequence (P54750 whole entry): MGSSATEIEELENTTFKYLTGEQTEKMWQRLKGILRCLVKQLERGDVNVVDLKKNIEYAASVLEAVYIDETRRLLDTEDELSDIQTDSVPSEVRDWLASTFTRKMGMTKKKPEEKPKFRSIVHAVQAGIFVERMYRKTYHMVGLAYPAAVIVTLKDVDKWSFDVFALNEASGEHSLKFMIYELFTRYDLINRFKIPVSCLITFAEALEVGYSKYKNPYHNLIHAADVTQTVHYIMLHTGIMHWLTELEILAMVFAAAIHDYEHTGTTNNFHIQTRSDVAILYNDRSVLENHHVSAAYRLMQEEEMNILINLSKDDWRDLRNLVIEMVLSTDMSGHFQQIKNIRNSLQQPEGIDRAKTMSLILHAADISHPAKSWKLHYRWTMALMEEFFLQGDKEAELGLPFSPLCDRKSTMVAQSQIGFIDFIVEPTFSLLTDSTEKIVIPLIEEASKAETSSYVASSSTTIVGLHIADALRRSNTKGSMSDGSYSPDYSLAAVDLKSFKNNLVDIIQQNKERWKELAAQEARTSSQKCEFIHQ
T3 sequence (Q9HCR9 whole entry): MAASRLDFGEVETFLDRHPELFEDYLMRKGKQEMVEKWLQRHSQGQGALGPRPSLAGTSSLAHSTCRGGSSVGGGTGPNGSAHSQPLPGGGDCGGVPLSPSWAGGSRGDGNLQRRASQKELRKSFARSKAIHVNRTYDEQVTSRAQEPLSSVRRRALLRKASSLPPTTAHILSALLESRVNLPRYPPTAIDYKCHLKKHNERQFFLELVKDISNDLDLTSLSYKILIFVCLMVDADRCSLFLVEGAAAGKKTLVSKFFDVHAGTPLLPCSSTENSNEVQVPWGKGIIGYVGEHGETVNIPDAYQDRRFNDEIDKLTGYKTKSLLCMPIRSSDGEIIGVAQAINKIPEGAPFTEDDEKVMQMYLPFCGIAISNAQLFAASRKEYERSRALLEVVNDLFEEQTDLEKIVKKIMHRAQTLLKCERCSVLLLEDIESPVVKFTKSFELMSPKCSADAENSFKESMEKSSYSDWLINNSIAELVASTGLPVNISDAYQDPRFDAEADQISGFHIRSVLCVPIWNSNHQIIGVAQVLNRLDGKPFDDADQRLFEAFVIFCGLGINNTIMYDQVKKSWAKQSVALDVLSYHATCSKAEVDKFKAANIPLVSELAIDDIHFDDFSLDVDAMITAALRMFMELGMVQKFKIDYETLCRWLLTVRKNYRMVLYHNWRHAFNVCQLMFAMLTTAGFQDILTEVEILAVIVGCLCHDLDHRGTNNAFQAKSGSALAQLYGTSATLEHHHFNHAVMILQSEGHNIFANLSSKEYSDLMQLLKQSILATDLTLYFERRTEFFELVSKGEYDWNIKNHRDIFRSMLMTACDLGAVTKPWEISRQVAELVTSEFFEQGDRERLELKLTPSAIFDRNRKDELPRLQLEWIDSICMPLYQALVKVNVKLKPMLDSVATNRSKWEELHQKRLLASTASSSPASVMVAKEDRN
T8 sequence (O76083 whole entry): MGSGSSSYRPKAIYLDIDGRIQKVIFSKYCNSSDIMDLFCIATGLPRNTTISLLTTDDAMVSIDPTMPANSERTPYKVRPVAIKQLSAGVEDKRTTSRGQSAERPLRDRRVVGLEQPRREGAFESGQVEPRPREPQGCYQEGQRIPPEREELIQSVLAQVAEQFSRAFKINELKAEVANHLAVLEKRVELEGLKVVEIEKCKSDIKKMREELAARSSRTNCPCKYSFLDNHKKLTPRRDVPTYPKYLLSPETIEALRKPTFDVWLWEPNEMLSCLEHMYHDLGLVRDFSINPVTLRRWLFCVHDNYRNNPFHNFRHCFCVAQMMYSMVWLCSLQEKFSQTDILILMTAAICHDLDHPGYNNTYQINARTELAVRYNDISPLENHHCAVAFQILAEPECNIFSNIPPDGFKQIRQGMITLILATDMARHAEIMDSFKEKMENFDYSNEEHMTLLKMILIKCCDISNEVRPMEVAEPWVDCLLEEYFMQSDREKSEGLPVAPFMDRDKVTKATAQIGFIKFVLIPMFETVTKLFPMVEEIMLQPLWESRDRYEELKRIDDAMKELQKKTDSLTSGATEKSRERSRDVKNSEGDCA

`COc1cc2ncnc(N3CC[C@@H](Oc4cnc5ccccc5n4)C3)c2cc1OC` [PQ-10, (R)-6,7-dimethoxy-4-{3-(quinoxalin-2-yloxy)pyrrolidin-1-yl}quinazoline]: the IC50 was 273 nM on PDE3B; 470 nM at PDE3A (substrate cAMP, read-out: Phosphodiesterase Inhibition PDE3A cAMP IC50); 211 nM on PDE3A (substrate cGMP, read-out: Phosphodiesterase Inhibition PDE3A cGMP IC50); 8400 nM in [1] (72 hours of treatment, FIG. 11, read-out: IC50, growth of normal colonocytes (NCM460)); over 5000 nM in experiment [1] (PDE10 Inhibitors table, read-out: Growth Inhibition IC50, NCM-460); 30100 nM at PDE11A (substrate cAMP, read-out: Phosphodiesterase Inhibition PDE11A cAMP IC50). For the same compound, the IC50 at PDE11A (substrate cGMP, read-out: Phosphodiesterase Inhibition PDE11A cGMP IC50) was found to be 13200 nM; at PDE1A (substrate cAMP, read-out: Phosphodiesterase Inhibition PDE1A cAMP IC50), 29200 nM; at PDE1A (substrate cGMP, read-out: Phosphodiesterase Inhibition PDE1A cGMP IC50), 8800 nM; at PDE2A (substrate cAMP, read-out: Phosphodiesterase Inhibition PDE2A cAMP IC50), 7000 nM; at PDE2A (substrate cGMP, read-out: Phosphodiesterase Inhibition PDE2A cGMP IC50), 3700 nM; in experiment [2] (72 hours of treatment, FIG. 11C, read-out: IC50, growth of SW-480 colon tumor cells) it was 220 nM. In addition, the half-inhibitory concentration (IC50) in experiment [2] (PDE10 Inhibitors table, read-out: Growth Inhibition IC50, SW-480) was 199 nM; at PDE10A (Phosphodiesterase Inhibition PDE10A cAMP IC50, substrate cAMP) it was 5.38 nM; at PDE10A (Phosphodiesterase Inhibition PDE10A cGMP IC50, substrate cGMP) it was 3.88 nM; at PDE4B, 17800 nM; on PDE9A, over 200000 nM; on PDE5A, 1800 nM. For the same compound, the concentration for half-maximal inhibition (IC50) in experiment [3] (72 hours of treatment, FIG. 11, read-out: IC50, growth of HT29 colon tumor cells) was found to be 130 nM; in [3] (PDE10 Inhibitors table, read-out: Growth Inhibition IC50, HT-29), 197 nM; in experiment [4] (72 hours of treatment, FIG. 11, read-out: IC50, growth of HCT116 colon tumor cells) it was 290 nM; in experiment [4] (PDE10 Inhibitors table, read-out: Growth Inhibition IC50, HCT-116), 201 nM. Also, the “normal colonocytes (NCM460) less sensitive than colon tumor cell lines” value in experiment [1] (NCM460 vs HCT116, SW-480 and HT29) is recorded as “approximately 40 times”.
